From ChEMBL document CHEMBL4699525, “Design and synthesis of new indanol-1,2,3-triazole derivatives as potent antitubercular and antimicrobial agents” (Bioorg Med Chem Lett, 2020) come the findings set out here.

≈ marks a conversion by molar mass, not a printed value. Calls of active or inactive are those of the source. The rule behind the calls is not given here.

In one assay the test system is Candida albicans. As to the kind of experiment: Antifungal activity against Candida albicans assessed as inhibition of fungal growth incubated for 24 hrs by agar well diffusion method. In kind it is functional. In general terms: In agar diffusion tests the substance spreads into inoculated agar from a disc or well.
In a further assay the test system is Pseudomonas aeruginosa. As to the kind of experiment: Antibacterial activity against Pseudomonas aeruginosa assessed as inhibition of bacterial growth incubated for 24 hrs by agar well diffusion method. In kind it is functional.
The subject of another assay is Escherichia coli. Description: Antibacterial activity against Escherichia coli assessed as inhibition of bacterial growth incubated for 24 hrs by agar well diffusion method. The format is functional.
Another assay deals with Staphylococcus aureus. As to the kind of experiment: Antibacterial activity against Staphylococcus aureus assessed as inhibition of bacterial growth incubated for 24 hrs by agar well diffusion method. The format is functional.
A further assay deals with Bacillus cereus. Description: Antibacterial activity against Bacillus cereus assessed as inhibition of bacterial growth incubated for 24 hrs by agar well diffusion method. The format is functional.
In the next assay the test system is Salmonella typhi. As to the kind of experiment: Antibacterial activity against Salmonella typhi assessed as inhibition of bacterial growth incubated for 24 hrs by agar well diffusion method. The format is functional. To be noted: Salmonella enterica subsp. enterica serovar Typhi.
In a further assay the test system is Klebsiella aerogenes. As to the kind of experiment: Antibacterial activity against Enterobacter aerogenes assessed as inhibition of bacterial growth incubated for 24 hrs by agar well diffusion method. The format is functional.
The test system of assay [1] is Salmonella enterica subsp. enterica serovar Abony. Description: Antibacterial activity against Salmonella abony assessed as inhibition of bacterial growth incubated for 24 hrs by agar well diffusion method. The format is functional.
Another assay concerns Aspergillus niger. Description: Antifungal activity against Aspergillus niger assessed as inhibition of fungal growth incubated for 24 hrs by agar well diffusion method. The format is functional.
For the next assay, the system named is Shigella boydii. Description: Antibacterial activity against Shigella boydii assessed as inhibition of bacterial growth incubated for 24 hrs by agar well diffusion method. In kind it is functional.
The target of assay [2] is T1, Enoyl-[acyl-carrier-protein] reductase [NADH] (Mycobacterium tuberculosis) (UniProt P9WGR1).
T1 sequence (whole entry): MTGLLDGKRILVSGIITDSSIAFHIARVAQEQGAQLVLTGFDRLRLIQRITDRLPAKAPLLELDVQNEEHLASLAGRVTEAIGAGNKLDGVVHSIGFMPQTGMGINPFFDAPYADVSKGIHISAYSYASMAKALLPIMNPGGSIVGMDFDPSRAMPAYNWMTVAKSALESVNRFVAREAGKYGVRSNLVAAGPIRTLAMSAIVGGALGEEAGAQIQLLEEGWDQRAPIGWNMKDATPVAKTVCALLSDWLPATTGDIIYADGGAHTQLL
As to the kind of experiment: Inhibition of InhA in Mycobacterium tuberculosis H37Rv assessed antitubercular activity by measuring inhibition of bacterial growth incubated for 7 days by MABA assay. To be noted: time 7.0 day.

The next assay concerns Bacillus subtilis. Description: Antibacterial activity against Bacillus subtilis assessed as inhibition of bacterial growth incubated for 24 hrs by agar well diffusion method. The format is functional.
For another assay, the system named is Saccharomyces cerevisiae. Description: Antifungal activity against Saccharomyces cerevisiae assessed as inhibition of fungal growth incubated for 24 hrs by agar well diffusion method. The format is functional.

With `O=C(Cn1cc(COc2ccc3c(c2)CCC3)nn1)Nc1ccc(Cl)cc1`, the “diameter of the inhibition zone (DIZ)” value came out at 15 mm with Candida albicans, 8 mm in the assay on Staphylococcus aureus and 10 mm in the assay with Saccharomyces cerevisiae. In addition, the “diameter of the inhibition zone (DIZ)” value (with Pseudomonas aeruginosa; in the assay with Escherichia coli; with Bacillus cereus; in the assay on Salmonella typhi; in the assay on Klebsiella aerogenes; in [1]) was “inactive” throughout. Further, the “diameter of the inhibition zone (DIZ)” value in the assay on Aspergillus niger, in the assay with Shigella boydii and in the assay on Bacillus subtilis was “inactive” throughout. The compound further registered an MIC in assay [2] of over 25 µM.

`CCc1ccc(NC(=O)Cn2cc(COc3ccc4c(c3)CCC4)nn2)cc1`: the “diameter of the inhibition zone (DIZ)” value with Candida albicans, with Pseudomonas aeruginosa, with Escherichia coli, in the assay with Staphylococcus aureus, in the assay with Bacillus cereus and in the assay on Salmonella typhi was “inactive” throughout. Also, the “diameter of the inhibition zone (DIZ)” value (in the assay with Klebsiella aerogenes; in assay [1]; in the assay with Aspergillus niger; in the assay with Bacillus subtilis; in the assay with Saccharomyces cerevisiae) was “inactive” throughout. The “diameter of the inhibition zone (DIZ)” value with Shigella boydii is given as 11 mm. Besides, in assay [2], the MIC is over 25 µM.

Take `Brc1ccc(-n2cc(COc3ccc4c(c3)CCC4)nn2)cc1`: the “diameter of the inhibition zone (DIZ)” value with Candida albicans worked out at 11 mm; with Escherichia coli, 8 mm; in the assay with Saccharomyces cerevisiae it was 7 mm. For the same compound, the “diameter of the inhibition zone (DIZ)” value (in the assay on Pseudomonas aeruginosa; in the assay with Staphylococcus aureus; in the assay with Bacillus cereus; with Salmonella typhi; in the assay with Klebsiella aerogenes; in [1]) was “inactive” each time. Besides, the “diameter of the inhibition zone (DIZ)” value in the assay on Aspergillus niger, in the assay on Shigella boydii and with Bacillus subtilis was “inactive” in each case. In [2], this compound gave an MIC of over 25 µM.

In the case of `Cc1cc([N+](=O)[O-])ccc1NC(=O)Cn1cc(COc2ccc3c(c2)CCC3)nn1`, the “diameter of the inhibition zone (DIZ)” value with Candida albicans, in the assay with Pseudomonas aeruginosa, in the assay with Escherichia coli, with Staphylococcus aureus, in the assay with Bacillus cereus and in the assay on Salmonella typhi was “inactive” throughout. Also, the “diameter of the inhibition zone (DIZ)” value (in the assay with Klebsiella aerogenes; in assay [1]; in the assay with Aspergillus niger; with Bacillus subtilis; with Saccharomyces cerevisiae) was “inactive” in each case. Moreover, in assay [2], the MIC is over 25 µM.

On to `Cc1ccc(NC(=O)Cn2cc(COc3ccc4c(c3)CCC4)nn2)cc1`, for which the “diameter of the inhibition zone (DIZ)” value in the assay on Candida albicans is 12 mm; in the assay with Staphylococcus aureus it was 8 mm. Further, the “diameter of the inhibition zone (DIZ)” value (in the assay with Pseudomonas aeruginosa; in the assay with Escherichia coli; in the assay with Bacillus cereus; in the assay with Salmonella typhi; in the assay on Klebsiella aerogenes; in [1]) was “inactive” in each case. The “diameter of the inhibition zone (DIZ)” value with Aspergillus niger, in the assay on Shigella boydii, with Bacillus subtilis and in the assay with Saccharomyces cerevisiae was “inactive” each time. In addition, in assay [2], the MIC was over 25 µM.

For the compound `Cc1ccc(-n2cc(COc3ccc4c(c3)CCC4)nn2)cc1`, the “diameter of the inhibition zone (DIZ)” value with Candida albicans was found to be 12 mm. The “diameter of the inhibition zone (DIZ)” value in the assay with Pseudomonas aeruginosa, in the assay on Escherichia coli, with Staphylococcus aureus, in the assay on Bacillus cereus, in the assay with Salmonella typhi and with Klebsiella aerogenes was “inactive” in each case. Besides, the “diameter of the inhibition zone (DIZ)” value (in assay [1]; in the assay with Aspergillus niger; in the assay on Shigella boydii; in the assay with Bacillus subtilis; with Saccharomyces cerevisiae) was “inactive” in each case. Moreover, the MIC in assay [2] is over 25 µM.

Take `O=C(Cn1cc(COc2ccc3c(c2)CCC3)nn1)Nc1ccccc1Cl`: the “diameter of the inhibition zone (DIZ)” value in the assay with Candida albicans, in the assay on Pseudomonas aeruginosa, in the assay on Escherichia coli, in the assay with Staphylococcus aureus, in the assay with Bacillus cereus and in the assay on Salmonella typhi was “inactive” throughout. Besides, the “diameter of the inhibition zone (DIZ)” value (with Klebsiella aerogenes; in [1]; with Aspergillus niger; with Bacillus subtilis; with Saccharomyces cerevisiae) was “inactive” in each case. In assay [2], this compound came in with an MIC of over 25 µM.

As to `CCc1ccc(-n2cc(COc3ccc4c(c3)CCC4)nn2)cc1`, the “diameter of the inhibition zone (DIZ)” value with Candida albicans is given as 13 mm; in the assay with Staphylococcus aureus, 7 mm. Further, the “diameter of the inhibition zone (DIZ)” value (in the assay with Pseudomonas aeruginosa; in the assay with Escherichia coli; in the assay with Bacillus cereus; in the assay with Salmonella typhi; with Klebsiella aerogenes; in [1]) was “inactive” in each case. In addition, the “diameter of the inhibition zone (DIZ)” value with Aspergillus niger, with Shigella boydii and with Bacillus subtilis was “inactive” throughout. This compound also came in with an MIC in assay [2] of over 25 µM.

With `O=C(Cn1cc(COc2ccc3c(c2)CCC3)nn1)Nc1ccc(F)cc1`, the “diameter of the inhibition zone (DIZ)” value amounted to 13 mm in the assay on Candida albicans, 13 mm with Staphylococcus aureus and 11 mm in the assay with Shigella boydii. Further, the “diameter of the inhibition zone (DIZ)” value (with Pseudomonas aeruginosa; with Escherichia coli; with Bacillus cereus; with Salmonella typhi; in the assay on Klebsiella aerogenes; in assay [1]) was “inactive” in each case. Besides, the “diameter of the inhibition zone (DIZ)” value in the assay on Aspergillus niger, in the assay on Bacillus subtilis and with Saccharomyces cerevisiae was “inactive” each time. For the same compound, the MIC in [2] is over 25 µM.

For the compound `CC[C@@H](CO)NCCN[C@@H](CC)CO`, the MIC in assay [2] is 3.12 µM (≈ 0.638 µg/mL).

Consider `COc1cccc(NC(=O)Cn2cc(COc3ccc4c(c3)CCC4)nn2)c1`, for which the “diameter of the inhibition zone (DIZ)” value in the assay on Candida albicans, with Pseudomonas aeruginosa, in the assay with Escherichia coli, in the assay with Staphylococcus aureus, in the assay on Bacillus cereus and in the assay with Salmonella typhi was “inactive” in each case. In addition, the “diameter of the inhibition zone (DIZ)” value (in the assay with Klebsiella aerogenes; in assay [1]; in the assay with Aspergillus niger; with Bacillus subtilis; in the assay on Saccharomyces cerevisiae) was “inactive” in each case. Further, the “diameter of the inhibition zone (DIZ)” value with Shigella boydii stood at 15 mm. This compound came in with an MIC in assay [2] of over 25 µM.

For `Cc1ccccc1NC(=O)Cn1cc(COc2ccc3c(c2)CCC3)nn1`, the “diameter of the inhibition zone (DIZ)” value in the assay on Candida albicans, in the assay with Pseudomonas aeruginosa, with Escherichia coli, in the assay with Staphylococcus aureus, with Bacillus cereus and with Salmonella typhi was “inactive” each time. Besides, the “diameter of the inhibition zone (DIZ)” value (in the assay on Klebsiella aerogenes; in assay [1]; in the assay on Aspergillus niger; with Bacillus subtilis; in the assay with Saccharomyces cerevisiae) was “inactive” in each case. Further, the “diameter of the inhibition zone (DIZ)” value in the assay with Shigella boydii was 11 mm. This compound yielded an MIC in assay [2] of over 25 µM.

`O=C(O)c1cn(C2CC2)c2cc(N3CCNCC3)c(F)cc2c1=O` showed an MIC in assay [2] of 1.56 µM (≈ 0.517 µg/mL).
